According to patent US20240103015A1, “METHODS FOR ASSAYING SLC34A2 EXPRESSION IN MUSCLE TISSUE AND TREATING FACIOSCAPULOHUMERAL MUSCULAR DYSTROPHY” (University of Maryland, Baltimore, priority 2022, published 2024):

Columns and labels:
[1] = test system: DUX4, SLC34A2 and other downstream gene products of DUX4; experiment: Relative mRNA expression of DUX4 and downstream genes in FSHD myotubes with and without losmapimod; format: cell-based, human
Text: FIG. 22. Relative mRNA expression of DUX4, SLC34A2, and other downstream gene products of DUX4, in the presence and absence of losmapimod. *, p<0.05, **, p<0.01.

[2] = test system: SLC34A2; details: cited from earlier work
[3] = test system: SLC34A2 protein at the surface of FSHD myotubes; experiment: Surface labeling of SLC34A2 protein on FSHD myotubes with and without losmapimod; format: cell-based, human
Text: FIG. 20. Labeling of SLC34A2 protein at the surface of FSHD myotubes, with and without treatment with losmapimod. […] FIG. 21. Relative intensities of surface labeling of SLC34A2 in FSHD myotubes with and without losmapimod treatment, as in FIG. 20, normalized to the desmin signal in each ROI. *, p<0.05.

[4] = test system: SLC34A2 protein in C6 (FSHD) myotubes; experiment: Immunoblot of SLC34A2 protein in cultured FSHD myotubes treated with p38 kinase inhibitors; format: cell-based, human; details: for expression of the SLC34A2 protein: cultured C6 (FSHD) myotubes
Text: (i): We have adapted and improved our procedures to assay for SLC34A2 mRNA and protein in myotubes of immortalized myoblasts derived from FSHD and healthy individuals. To establish the validity of our assays, we use losmapimod and other p38 kinase inhibitors.

[5] = target: T1, SLC34A2 (Homo sapiens, UniProt O95436, D634G); experiment: Immunoprecipitation of SLC34A2 from extracts of FSHD muscle cells in culture; format: binding
T1 construct: from tissue; host or cells: Xenografts of human FSHD myoblasts (C6, 15A; controls A4, 15V) in the tibialis anterior of NRG mice
T1 sequence (O95436 1-689 isoform O95436-2 D633G): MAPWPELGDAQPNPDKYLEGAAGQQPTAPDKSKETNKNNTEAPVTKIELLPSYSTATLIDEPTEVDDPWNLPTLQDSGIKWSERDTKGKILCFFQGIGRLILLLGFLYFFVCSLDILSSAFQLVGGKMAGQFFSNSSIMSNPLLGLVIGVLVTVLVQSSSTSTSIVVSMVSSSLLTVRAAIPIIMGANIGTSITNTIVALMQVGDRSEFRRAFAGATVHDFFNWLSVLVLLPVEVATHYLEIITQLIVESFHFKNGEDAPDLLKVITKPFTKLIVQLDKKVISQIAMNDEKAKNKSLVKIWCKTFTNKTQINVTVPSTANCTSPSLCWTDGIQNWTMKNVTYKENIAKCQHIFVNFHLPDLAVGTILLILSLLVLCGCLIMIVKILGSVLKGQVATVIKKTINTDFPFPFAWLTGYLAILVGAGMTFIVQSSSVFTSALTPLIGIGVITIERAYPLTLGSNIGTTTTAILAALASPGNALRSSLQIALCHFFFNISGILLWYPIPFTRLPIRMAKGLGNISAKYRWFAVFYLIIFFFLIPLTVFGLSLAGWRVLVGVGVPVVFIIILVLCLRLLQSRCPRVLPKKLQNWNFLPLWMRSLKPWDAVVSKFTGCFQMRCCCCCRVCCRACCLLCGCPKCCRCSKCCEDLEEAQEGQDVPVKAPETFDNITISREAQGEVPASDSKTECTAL
Text: FIG. 13. Immunoblots of FSHD and control myotubes with antibodies to the C- and N-termini of SLC34A2 (A) and after immunoprecipitation with MX35 (B), followed by blotting.

[6] = target: T1, SLC34A2; experiment: Immunolabeling of living FSHD (C6) and control (A4) myotubes; format: binding; details: FSHD (C6) vs control (A4) myotubes
Text: FIG. 14. Immunolabeling of living FSHD (C6) and control (A4) myotubes with MX35 and control IgG. DAPI was used as a counterstain (blue). Bound MX35 and control IgG were recognized with Alexa-568 labeled goat anti-mouse IgG (red).

[7] = target: T2, SLC34A2 (Homo sapiens, UniProt O95436); experiment: Immunofluorescent labeling of frozen sections of xenografts with MX35; format: binding; details: control grafts generated with A4 cells
T2 construct: from tissue; host or cells: Xenografts of human FSHD myoblasts (C6, 15A; controls A4, 15V) in the tibialis anterior of NRG mice
T2 sequence (O95436 1-689 isoform O95436-2 D633G): T1 sequence (O95436 1-689 isoform O95436-2 D633G)
Text: (§1) Antibodies: MX35 is a mouse mAb from the Sloan-Kettering Research Institute. Biotinylation and conjugation of MX35 or its Fab fragments, to Alexa fluorophores from InVitrogen/ThermoFisher, will follow manufacturer's instructions. Rabbit mAbs to the N- and C-terminal regions of SLC34A2 (Cell Signaling) are used at 1:100 dilutions. Fluorescent secondary antibodies and streptavidin are available commercially.
(§2) Immunofluorescence: Mice will be euthanized and blood samples taken. Muscles will be collected and either snap frozen or processed for PCR or immunoblotting. Frozen muscles will be-sectioned on a cryostat and labeled for biotinylated MX35 with fluorescent streptavidin or antibodies to biotin. Double labeling with rabbit anti-SLC34A2 antibodies will be performed to confirm the identity of positive fibers. Additional labeling with human-specific antibodies (e.g., to β-spectrin, lamin followed by isoform-specific secondary antibodies will be used to confirm the identify of fibers of human origin in the xenografts, as: necessary.
(§3) Results: We used immortalized C6 myoblasts (14) to generate xenografts in the Tibialis anterior muscles of NRG mice. Cross sections of the graft show similar immunofluorescent labeling by MX35 and a rabbit Ab to the C-terminus of SLC34A2 (FIG. 6). […]

[8] = target: T1, SLC34A2; experiment: as above; format: binding; details: FSHD (C6) xenografts in Tibialis anterior of NRG mice
Text: as §1, §2, §3

[9] = target: T3, SLC34A2 in FSHD xenografts (Homo sapiens, UniProt O95436); experiment: IVIS imaging of living mice carrying xenografts after injection of fluorescent antibody; format: in vivo, mouse; details: living mice (IVIS) and frozen sections
T3 construct: from tissue; host or cells: Xenografts of human FSHD myoblasts (C6, 15A; controls A4, 15V) in the tibialis anterior of NRG mice
T3 sequence (O95436 1-689 isoform O95436-2 D633G): T1 sequence (O95436 1-689 isoform O95436-2 D633G)
Text: (ii): Given the level of variability we observe in our xenografts, and the small numbers of FSHD myofibers in the grafts generated by some of the FSHD cell lines we have been studying, we thought it important to be able to monitor the diseased myofibers in living mice. Our approach is to inject mice with an infrared fluorescent version of a monoclonal antibody to SLC34A2, MX-35, that recognizes an extracellular epitope of the protein and that has been used clinically with patients with ovarian cancer. This approach should allow us to estimate the lifetime of the fibers once they become positive for SLC34A2, and, using different IR fluorophores, what the rate of appearance of newly positive fibers is in our grafts. It could also be used to test potential treatments for FSHD both in mice and in clinical trials with FSHD patients.
Injection and Imaging: Mice will be injected IV with fluorescent mAb or Fab fragments either through the tail vein or retroorbitally, with 150 μg of the biotinylated antibodyfluorophore conjugate in […]. Imaging in a Xenogen IVIS Spectrum Optical In Vivo imaging System (Perkin Elmer), will begin 2 hr later, repeated daily for 3 days, and at longer intervals thereafter. Repeated injections will also be done at regular intervals, to be determined, based on the levels of the antibody-conjugate remaining in circulation.

[10] = test system: SLC34A2; details: epithelia and cancers; cited from earlier work
[11] = test system: DUX4 target genes (MBD3L2, LEUTX, SLC34A2); experiment: qPCR of DUX4 target gene mRNAs in FSHD xenografts of treated mice; format: in vivo, mouse
Protocol: Xenografts are treated starting at 5 weeks after initial engraftment. Dosage is 10 mg/kg BID, injected IP.

[12] = 10 mg/kg BID IP from 5 weeks after engraftment

Row | Compound | mRNAs encoding DUX4, SLC34A2 and other gene products downstream of DUX4 [1] | expression of SLC34A2 [2] | surface labeling signal of SLC34A2 protein [3] | expression of the SLC34A2 protein [4] | SLC34A2 protein level ([4]; cultured FSHD myotubes, immunoblots) [fold] | immunoprecipitation of SLC34A2 [5] | labeling of the surface of living myotubes [6] | labeling of control graft sections [7] | recognition of SLC34A2 in xenograft sections [8] | detection of antibody-tagged fibers in grafts [9] | binding to SLC34A2 [10] | expression of the mRNAs encoding DUX4 target genes, including SLC34A2 [11] | LEUTX reduction in expression [11, 12] | MBD3L2 reduction in expression [11, 12] | SLC34A2 reduction in expression [11, 12] [%]
1 | Cc1c(F)cc(C(=O)NC2CC2)cc1-c1ccc(C(=O)NCC(C)(C)C)cn1 [losmapimod] | reduces the mRNAs encoding DUX4 and SLC34A2 | reduces the expression of SLC34A2 | reduces this signal significantly | Decreased expression | −2 | – | – | – | – | – | – | – | – | – | –
2 | MX35 | – | – | – | – | – | can immunoprecipitated SLC34A2 | specifically labels the surface of intact living FSHD myotubes, but not control, healthy myotubes | no labeling | recognizes SLC34A2 in mature FSHD skeletal muscle | can be detected in FSHD but not control grafts | bind SLC34A2 present in epithelia and cancers | – | – | – | –
3 | CC(C)(C)Cn1c(N)nc2ccc(-c3[nH]c(C(C)(C)C)nc3-c3ccc(F)cc3)nc21 [LY222820, ralimetinib] | – | – | – | Decreased expression | – | – | – | – | – | – | – | reduces expression | 60-70% | 60-70% | 41
